Assay results taken from patent publication US8017649B2, “Flavonoid compounds and uses thereof” (Howard Florey Institute of Experimental Physiology and …, priority 2005, dated 2011).
Entries after “also recorded” stand apart in the source; their conditions may differ.

Legend:
anaesthetised sheep = assay: Myocardial ischaemia and reperfusion injury in anaesthetised sheep; format: in vivo; details: higher dose: DiOHF3HA 6.7 mg/kg, DiOHF 5 mg/kg i.v.; 1 h ischaemia, 3 h reperfusion
anaesthetised rats = assay: Arterial pressure and heart rate in anaesthetised rats after intravenous injection; format: in vivo, rat; details: for change in heart rate (HR) / change in mean arterial pressure (MAP): intravenous, anaesthetised rats
Experimental: A unit dosage of an aqueous solution of 3-hydroxyflavone-3-hemiadipate (15) was administered to a group of male anesthetized Sprague Dawley rats intravenously and the blood pressure monitored over a period of time.
Male Sprague-Dawley rats (250-350 g) were anaesthetised with pentobarbitone sodium (60 mg kg^−1, ip). The trachea was isolated and cannulated with polyethylene tracheal tube (I.D. 2.0 mm), and the rat was allowed to breathe spontaneously.
The right carotid artery was cannulated and connected with a heparinised saline filled cannula (O.D. 0.75, I.D, 0.58 mm) and connected to a pressure transducer. Mean and phasic arterial pressure were continuously measured and recorded on a polygraph. The heart rate, was derived from the phasic arterial pressure using a tachometer.
DiOHF3HA ([…]) was injected intravenously, allowing at least 30 min between injections, and the peak changes in mean arterial pressure and heart rate measured. […] In a separate group of experiments ACh (0.3 mg/kg iv) and phenylephrine (PE, […]) were injected before and 30 minutes after DiOHF3HA (3 mg/kg iv), a time when arterial pressure and heart rate had returned to control levels. […]

conscious rats = assay: Endothelin-1-induced ischaemic stroke in conscious rats; format: in vivo, rat; details: for hemineglect (sticky tape) test latency / infarct in cortex / infarct in striatum: DiOHF 10 mg/kg or DiOHF3HA 15 mg/kg/day i.v.; for infarct in cortex / infarct in striatum: 72 h
Experimental: Ischaemic stroke was studied in conscious rats, with daily monitoring of neurological function and post mortem morphological assessment of cerebral infarcts at 72 hours alter stroke. Unilateral, transient cerebral ischaemia and reperfusion was induced in conscious rats by injection of the potent vasoconstrictor endothelin-1 outside but close to the right middle cerebral artery MCA, (via a pre-implanted guide tube). The ensuing stroke was graded on a scale of 0 to 5 by immediate behaviour, and potential neuroprotective compounds were injected intravenously 3 h after the stroke, and at 24 hour intervals thereafter.
Male Hooded Wistar rats (280-340 g) were anaesthetised with pentobarbitone sodium in a volume of 0.6 ml (60 mg/kg i.p.) for insertion of an intravenous (i.v.) catheter into the jugular vein for acute drug administration, A 23-gauge stainless steel guide cannula was then stereotaxically implanted into the piriform cortex 2 mm dorsal to the right MCA (0.2 mm anterior, −5.2 mm lateral and −5.9 mm ventral). The cannula was secured with dental acrylate cement and two small screws inserted into the skull. The scalp was closed with sutures. Rats were housed individually on a 12 h day/night cycle at a temperature of 18-22° C. and allowed to recover for 5 days before induction of stroke.
Vaso constriction of the right middle cerebral artery (MCA) was induced in conscious rats by administration of the potent vasoconstrictor agent endothelin-1 (ET-1) (60 pmol in 3 μl of saline over 10 min) via a 30-gauge injector that protruded 2 mm beyond the end of the previously implanted stereotaxic guide cannula. The injector was held in place by a poly-tubing cuff and the rat was placed in a clear Plexiglass box for observation during ET-1 injection. During stroke induction we observed counter-clockwise circling, clenching and dragging of the contralateral forepaw, validating the correct placement of the cannula. These behavioural changes occurred within 2 to 10 minutes of the commencement of the ET-1 injection and similar behaviours have been reported by other researchers employing this model. We have assigned a rating scale of stroke severity based on these behavioural changes during stroke and have shown that vehicle-treated rats assigned with higher stroke ratings have greater infarct volumes and neurological deficits. […] Rectal temperatures were taken with a thermistor probe, prior to stroke and at 30- or 60-minute intervals for 3 hours after stroke.
All behavioural tests were conducted prior to any procedures (pre-surgery, day 1), immediately prior to ET-1-induced MCA occlusion (pre-ischemia, day 6) and 24, 48 and 72 hours after ET-1-induced MCA occlusion. The behaviour of each rat was compared to pre-stroke, thus each rat acted as its own control. All rats were coded so that the investigator was blinded to treatment condition. Neurological abnormalities were evaluated with the use of a neurological deficit score based on detection of abnormal posture and hemiplegia. Abnormal pastures were assessed by suspending rats by the tail and scoring twisting of the thorax and extension of the forelimbs. Hemiplegia was evaluated when rats were placed on a raised platform. Deficits were deemed to be present when the hind limb contralateral to the infarcted hemisphere slipped off the edge of the platform and/or when the contralateral forelimb slipped off when the snout and whiskers were not in contact with the surface. All behaviours were scored on the following scale: 0=no deficit; 1=slight; 2=moderate; and 3=severe. Thus, when scores were totalled the maximum neurological deficit score was 12. A score of 0 was considered normal.
Sensory hemi-neglect was evaluated using a test consisting of placing adhesive tapes (Avery adhesive label, […] circles) on the distal-radial region of each wrist, Placement of the first tape was randomised between contralateral and ipsilateral limbs. […]

[1] = 30 min after DiOHF3HA 3 mg/kg iv
[2] = all stroke grades (2-4), DiOHF3HA 15 mg/kg/day
[3] = mild to moderate strokes, DiOHF 10 mg/kg or DiOHF3HA 15 mg/kg/day i.v. from 3 h post-stroke

| Structure (SMILES) | infarct size normalized to the area at risk (IS/AR) (anaesthetised sheep) [%] | PE-induced increase in arterial pressure (anaesthetised rats; [1]) | depressor response to ACh (anaesthetised rats; [1]) | change in heart rate (HR) (anaesthetised rats) | change in mean arterial pressure (MAP) (anaesthetised rats) | area of damage in the striatum (conscious rats; all stroke grades (2-4), DiOHF3HA 15 mg/kg) | infarct area through the cortex (conscious rats; all stroke grades (2-4), DiOHF3HA 15 mg/kg i.v.) | body weight following stroke (conscious rats; [2]) | core temperature following intravenous injection (conscious rats; [2]) | hemineglect (sticky label) test latency (conscious rats; [2]) | neurological deficit score (conscious rats; all stroke grades (2-4), DiOHF3HA 15 mg/kg/day, 24, 48 or 72 hours) | hemineglect (sticky tape) test latency (conscious rats; mild to moderate strokes) | neurological deficit score (conscious rats; [3]) | infarct in cortex (conscious rats; mild to moderate strokes) | infarct in striatum (conscious rats; mild to moderate strokes) | body weight following stroke (conscious rats; mild to moderate strokes, DiOHF3HA 15 mg/kg/day) |
| --- | --- | --- | --- | --- | --- | --- | --- | --- | --- | --- | --- | --- | --- | --- | --- | --- |
| O=C(O)CCCCC(=O)Oc1c(-c2ccc(O)c(O)c2)oc2ccccc2c1=O [DiOHF3HA, 3′,4′-dihydroxyflavone-3-hemiadipate] | 49±8 | diminished; also recorded: attenuated the PE-induced increase in arterial pressure | significantly enhanced the depressor response to ACh | dose-dependent decrease in HR; also recorded: dose-dependent decreases; also recorded: concentration dependent decreases | dose-dependent decrease in MAP; also recorded: dose-dependent decreases; also recorded: concentration dependent decreases | reduced the area of damage in the striatum | significantly reduced | no significant weight loss | not significantly different from pre-stroke temperature | abolished; also recorded: significantly improved neurological function in the hemineglect test | measurably improved neurological deficit scores | abolished; also recorded: significantly restored neurological function in the hemineglect test | no effect on neurological deficit scores | significantly reduced | significantly reduced the area of infarct through the striatum | did not lose weight |
| O=c1c(O)c(-c2ccc(O)c(O)c2)oc2ccccc12 [DiOHF, 3′,4′-Dihydroxyflavonol, reference compound] | 47±8 | – | – | dose-dependent decrease in HR | dose-dependent decreases in MAP | – | – | – | – | – | – | abolished the increase in hemineglect scores | reduced the neurological deficits at 48 and 72 h; also recorded: significantly improved neurological outcome | reduced the volume of infarct produced in the cerebral cortex; also recorded: significantly reduced the area of infarct | completely prevented an infarct developing in the striatum; also recorded: significantly reduced the area of infarct | – |
